Data: ChEMBL document CHEMBL4229431, “Discovery of novel selective GPR120 agonists with potent anti-diabetic activity by hybrid design” (Bioorg Med Chem Lett, 2018)
Activity calls are given as the source filed them. No cut-off for these calls is given here.

Key:
[1] = biological target: Free fatty acid receptor 1 (Homo sapiens, UniProt O14842); assay: Agonist activity at human GPR40 expressed in CHO cells assessed as increase in intracellular calcium level by Fluo-4-AM dye based assay; type: functional, cell-based
[2] = biological target: T1, Free fatty acid receptor 4 (Homo sapiens, UniProt Q5NUL3); assay: Agonist activity at human GPR120 expressed in CHO cells assessed as increase in intracellular calcium level by Fluo-4-AM dye based assay; type: functional, cell-based
T1 sequence (Q5NUL3 whole entry): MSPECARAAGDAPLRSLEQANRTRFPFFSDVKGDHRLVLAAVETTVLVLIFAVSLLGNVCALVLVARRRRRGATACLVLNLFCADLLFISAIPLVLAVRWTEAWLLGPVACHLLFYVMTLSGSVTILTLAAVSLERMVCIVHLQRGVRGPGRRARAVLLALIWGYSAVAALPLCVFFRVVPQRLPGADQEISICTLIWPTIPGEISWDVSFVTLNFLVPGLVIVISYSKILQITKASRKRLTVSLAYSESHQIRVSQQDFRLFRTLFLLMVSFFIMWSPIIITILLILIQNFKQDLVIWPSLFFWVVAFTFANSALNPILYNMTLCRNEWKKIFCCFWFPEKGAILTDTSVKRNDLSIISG

[3] = species: Homo sapiens; assay: Selectivity ratio of EC50 for agonist activity at human GPR40 expressed in CHO cells to EC50 for agonist activity at human GPR120 expressed in CHO cells; type: cell-based
[4] = biological target: T2, Free fatty acid receptor 4 (Homo sapiens) (UniProt Q5NUL3); assay: Agonist activity at human GPR120 expressed in CHO cells assessed as increase in intracellular calcium level at 1 uM by Fluo-4-AM dye based assay; type: functional, cell-based
T2 sequence (whole entry): T1 sequence (Q5NUL3 whole entry)

[5] = system: Mus musculus; assay: Hypoglycemic activity in ICR mouse assessed as reduction in blood glucose level pretreated orally for 60 mins followed by glucose challenge measured up to 120 mins by OGTT; type: functional, organism-based
[6] = system: Mus musculus; assay: Hypoglycemic activity in ICR mouse assessed as reduction in blood glucose level at 10 mg/kg, po pretreated for 60 mins followed by glucose challenge measured up to 120 mins by OGTT; type: functional, organism-based
[7] = biological target: T1, Free fatty acid receptor 4; assay: Agonist activity at human GPR120; type: functional

Free fatty acid receptor 1, sequence (O14842 whole entry): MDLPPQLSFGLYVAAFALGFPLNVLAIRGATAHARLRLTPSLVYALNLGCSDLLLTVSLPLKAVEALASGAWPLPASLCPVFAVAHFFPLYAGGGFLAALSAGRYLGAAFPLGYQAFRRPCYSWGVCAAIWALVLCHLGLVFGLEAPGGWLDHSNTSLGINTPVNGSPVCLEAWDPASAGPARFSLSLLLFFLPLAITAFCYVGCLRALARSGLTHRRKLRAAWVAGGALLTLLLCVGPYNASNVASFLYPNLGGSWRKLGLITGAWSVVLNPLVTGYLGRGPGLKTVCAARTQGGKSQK

SMILES | EC50 [1] [µM] | EC50 [2] [nM] | Activity [4] | other results
CO[C@H]1C[C@H](Oc2cc3c(c(-c4cc(F)c(OCCCC(=O)O)c(F)c4)c2)OCO3)C1 | > 100 | 220 | – | –
CO[C@H]1C[C@H](Oc2cc(F)c(F)c(-c3cc(F)c(S(=O)(=O)CCCC(=O)O)c(F)c3)c2)C1 | – | – | inactive | –
O=C(O)CCCOc1c(F)cc(-c2cc(OC3CCOCC3)cc(F)c2F)cc1F | > 100 | 2780 | – | –
CO[C@H]1C[C@H](Oc2cc(F)c(F)c(-c3cc(F)c(OCCCC(=O)NS(=O)(=O)c4ccccc4)c(F)c3)c2)C1 | – | – | inactive | –
COc1cc(-c2cc(O[C@H]3C[C@H](OC)C3)cc(F)c2F)cc(OC)c1OCCCC(=O)O | – | – | inactive | –
COc1cc(F)c(F)c(-c2cc(F)c(OCCCC(=O)O)c(F)c2)c1 | 24.4 | 69 | – | Ratio EC50 [3]: 354
CO[C@H]1C[C@H](Oc2cc(F)c(F)c(-c3cc(C)c(OCCCC(=O)O)c(C)c3)c2)C1 | > 100 | 874 | – | –
Cc1c(COc2cc(F)c(F)c(-c3cc(F)c(OCCCC(=O)O)c(F)c3)c2)cccc1-c1ccccc1 | – | – | inactive | –
CO[C@H]1C[C@H](Oc2cc(F)c(F)c(-c3ccc4c(c3)CC[C@H](CCC(=O)O)O4)c2)C1 | > 100 | 463 | – | Activity [6]: Active
CO[C@H]1C[C@H](Oc2ccc([N+](=O)[O-])c(-c3cc(F)c(OCCCC(=O)O)c(F)c3)c2)C1 | 29.4 | 1480 | – | Ratio EC50 [3]: 20
CC(C)Nc1ccccc1-c1cc(F)c(OCCCC(=O)O)c(F)c1 | > 100 | 1470 | – | EC50 [7]: 200 to 2000 nM

More lines, main results first:

EC50 [1] [µM] | EC50 [2] [nM] | Activity [4] | SMILES | other results
68.8 | 186 | – | CO[C@H]1C[C@H](Oc2cc(F)c(F)c(-c3cc(F)c(OCCCCC(=O)O)c(F)c3)c2)C1 | Ratio EC50 [3]: 370
> 100 | 347 | – | CO[C@H]1C[C@H](Oc2cc(F)c(F)c(-c3cc(F)c(SCCCC(=O)O)c(F)c3)c2)C1 | –
3.48 | 24000 | – | CO[C@H]1C[C@H](Oc2cc(F)c(F)c(-c3cc(F)c(OCCCCCCCC(=O)O)c(F)c3)c2)C1 | Ratio EC50 [3]: < 1
– | – | inactive | CO[C@H]1C[C@H](Oc2cc(F)c(F)c(-c3cc(F)c(OCCCC(=O)NS(C)(=O)=O)c(F)c3)c2)C1 | –
– | – | inactive | CO[C@H]1C[C@H](Oc2cc(F)c(F)c(-c3cc(F)c(OCCCC(=O)OCCNC(C)=O)c(F)c3)c2)C1 | –
> 100 | 93 | – | CO[C@H]1C[C@H](Oc2cc(F)c(F)c(-c3cc(F)c(OCCCC(=O)O)c(F)c3)c2)C1 | Activity [5]: Dose-dependent effect
– | – | inactive | CO[C@H]1C[C@H](Oc2cc(F)c(F)c(-c3cc(F)c(OCC(=O)O)c(F)c3)c2)C1 | –
> 100 | 5040 | – | CO[C@H]1C[C@H](Oc2cc(F)c(F)c(-c3cc(F)c(OCCC(C)(C)C(=O)O)c(F)c3)c2)C1 | –
3.5 | > 100000 | – | CO[C@H]1C[C@H](Oc2cc(F)c(F)c(-c3cc(F)c(OCCCCCCC(=O)O)c(F)c3)c2)C1 | –
11 | 638 | – | CO[C@H]1C[C@H](Oc2cc(F)c(F)c(-c3cc(F)c(OCCCCCC(=O)O)c(F)c3)c2)C1 | Ratio EC50 [3]: 17
